Four compounds from ChEMBL document CHEMBL3046664, “Synthesis in vitro/in vivo evaluation and in silico physicochemical study of prodrug approach for brain targeting of alkylating agent” (Med Chem Res, 2013) can be followed below.

Structures are written as SMILES.

Data set [1] in a line: Half life in silver nitrate solution assessed as conversion to 1-Benzyl-3-{(bis(2-chloroethyl)amino)carbamoyl}pyridinium bromide at 5% after 2 min by UV-Visible spectrophotometric analysis. The format is physicochemical.
For data set [2], the system named is Brain. The experiment in a line: Half life in Rattus norvegicus (rat) brain homogenate assessed as conversion to 1-Benzyl-3-{(bis(2-chloroethyl)amino)carbamoyl}pyridinium bromide at 6.25 x 10^-4 M by UV-spectrophotometric analysis. Type of data set: ADME, tissue-based. To be noted: 625 µM.
The subject of data set [3] is Blood. The experiment in a line: Half life in 100% Homo sapiens (human) whole blood assessed as conversion to 1-Benzyl-3-{(bis(2-chloroethyl)amino)carbamoyl}pyridinium bromide at 10 x 10^-4 M by UV-spectrophotometric analysis. To be noted: 1000 µM. The format is ADME, tissue-based.
Data set [4] in a line: Stability of the compound assessed as decomposition at 25 degC after 60 days by UV spectrophotometric analysis. Type of data set: physicochemical. To be noted: read-out: Drug degradation.
Data set [5] relates to Blood. The experiment in a line: Half life in 100% Rattus norvegicus (rat) whole blood assessed as conversion to 1-Benzyl-3-{(bis(2-chloroethyl)amino)carbamoyl}pyridinium bromide at 10 x 10^-4 M by UV-spectrophotometric analysis. The format is ADME, tissue-based. The conditions noted are these: 1000 µM.
A short description of data set [6]: Stability of the compound assessed as decomposition at 4 degC after 60 days by UV spectrophotometric analysis. To be noted: read-out: Drug degradation. Type of data set: physicochemical.
Data set [7] is described as follows: Half life in silver nitrate solution assessed as conversion to1-(4-Nitrobenzyl-3-{(bis(2-chloroethyl)amino)carbamoyl}pyridinium bromide at 5% after 2 min by UV-Visible spectrophotometric analysis. The format is physicochemical.
For data set [8], the system named is Blood. The experiment in a line: Prodrug conversion in Sprague-Dawley Rattus norvegicus (rat) blood assessed as assessed as 1-(4-Nitrobenzyl-3-{(bis(2-chloroethyl)amino)carbamoyl}pyridinium bromide level at 40 mg/kg, iv measured at 100 min by UV-spectrophotometric analysis. On the set-up: dose 40 mg/kg, route intravenous. The format is ADME, organism-based. To be noted: in vivo.

Data set [9] concerns Brain. The experiment in a line: Prodrug conversion in Sprague-Dawley Rattus norvegicus (rat) brain homogenate assessed as 1-(4-Nitrobenzyl-3-{(bis(2-chloroethyl)amino)carbamoyl}pyridinium bromide level at 40 mg/kg, iv measured at 60 min by UV-spectrophotometric analysis. The format is ADME, organism-based. Also on record: dose 40 mg/kg, route intravenous. To be noted: in vivo, 1 h.

Data set [10] deals with Blood. The experiment in a line: Prodrug conversion in Sprague-Dawley Rattus norvegicus (rat) blood assessed as 1-(4-Nitrobenzyl-3-{(bis(2-chloroethyl)amino)carbamoyl}pyridinium bromide level at 40 mg/kg, iv measured at 150 min by UV-spectrophotometric analysis. The format is ADME, organism-based. On the set-up: dose 40 mg/kg, route intravenous. To be noted: in vivo, 2.5 h.

For data set [11], the system named is Brain. The experiment in a line: Prodrug conversion in Sprague-Dawley Rattus norvegicus (rat) brain homogenate assessed as 1-(4-Nitrobenzyl-3-{(bis(2-chloroethyl)amino)carbamoyl}pyridinium bromide level at 40 mg/kg, iv measured at 30 min by UV-spectrophotometric analysis. Type of data set: ADME, organism-based. On the set-up: dose 40 mg/kg, route intravenous. To be noted: in vivo, 0.5 h.

Data set [12] concerns Blood. The experiment in a line: Half life in 100% Rattus norvegicus (rat) whole blood assessed as conversion to 1-(4-Nitrobenzyl-3-{(bis(2-chloroethyl)amino)carbamoyl}pyridinium bromide at 10 x 10^-4 M by UV-spectrophotometric analysis. The format is ADME, tissue-based. To be noted: 1000 µM.
Data set [13] concerns Blood. The experiment in a line: Prodrug conversion in Sprague-Dawley Rattus norvegicus (rat) blood assessed as 1-(4-Nitrobenzyl-3-{(bis(2-chloroethyl)amino)carbamoyl}pyridinium bromide level at 40 mg/kg, iv measured at 15 min by UV-spectrophotometric analysis. Type of data set: ADME, organism-based. To be noted: in vivo, 0.25 h. On the set-up: dose 40 mg/kg, route intravenous.

The test system of data set [14] is Brain. The experiment in a line: Prodrug conversion in Sprague-Dawley Rattus norvegicus (rat) brain homogenate assessed as 1-(4-Nitrobenzyl-3-{(bis(2-chloroethyl)amino)carbamoyl}pyridinium bromide level at 40 mg/kg, iv measured at 15 min by UV-spectrophotometric analysis. Also on record: dose 40 mg/kg, route intravenous. To be noted: in vivo, 0.25 h. Type of data set: ADME, organism-based.

Data set [15] deals with Blood. The experiment in a line: Prodrug conversion in Sprague-Dawley Rattus norvegicus (rat) blood assessed as 1-(4-Nitrobenzyl-3-{(bis(2-chloroethyl)amino)carbamoyl}pyridinium bromide level at 40 mg/kg, iv measured at 60 min by UV-spectrophotometric analysis. Type of data set: ADME, organism-based. Also on record: dose 40 mg/kg, route intravenous. To be noted: in vivo, 1 h.

Data set [16] concerns Blood. The experiment in a line: Half life in 100% Homo sapiens (human) whole blood assessed as conversion to 1-(4-Nitrobenzyl-3-{(bis(2-chloroethyl)amino)carbamoyl}pyridinium bromide at 10 x 10^-4 M by UV-spectrophotometric analysis. The format is ADME, tissue-based. The conditions noted are these: 1000 µM.
Data set [17] has as its system Brain. The experiment in a line: Half life in Rattus norvegicus (rat) brain homogenate assessed as conversion to 1-(4-Nitrobenzyl-3-{(bis(2-chloroethyl)amino)carbamoyl}pyridinium bromide at 6.25 x 10^-4 M by UV-spectrophotometric analysis. Type of data set: ADME, tissue-based. The conditions noted are these: 625 µM.
Data set [18] relates to Blood. The experiment in a line: Prodrug conversion in Sprague-Dawley Rattus norvegicus (rat) blood assessed as 1-(4-Nitrobenzyl-3-{(bis(2-chloroethyl)amino)carbamoyl}pyridinium bromide level at 40 mg/kg, iv measured at 30 min by UV-spectrophotometric analysis. Type of data set: ADME, organism-based. Also on record: dose 40 mg/kg, route intravenous. The conditions noted are these: in vivo, 0.5 h.

For data set [19], the system named is Brain. The experiment in a line: Prodrug conversion in Sprague-Dawley Rattus norvegicus (rat) brain homogenate assessed as 1-(4-Nitrobenzyl-3-{(bis(2-chloroethyl)amino)carbamoyl}pyridinium bromide level at 40 mg/kg, iv measured at 150 min by UV-spectrophotometric analysis. Type of data set: ADME, organism-based. Also on record: dose 40 mg/kg, route intravenous. The conditions noted are these: in vivo, 2.5 h.

Data set [20] relates to Brain. The experiment in a line: Prodrug conversion in Sprague-Dawley Rattus norvegicus (rat) brain homogenate assessed as 1-(4-Nitrobenzyl-3-{(bis(2-chloroethyl)amino)carbamoyl}pyridinium bromide level at 40 mg/kg, iv measured at 100 min by UV-spectrophotometric analysis. The format is ADME, organism-based. The conditions noted are these: in vivo. On the set-up: dose 40 mg/kg, route intravenous.

A short description of data set [21]: Half life of the compound after 30 min by UV-spectrophotometric analysis in presence of 4-(4-nitrobenzyl)pyridine. Type of data set: physicochemical.

For the compound `O=C(C1=CN(Cc2ccccc2)C=CC1)N(CCCl)CCCl`, the t1/2 in data set [1] is reported as 5 min; with Brain [2] it was 25 min; in the data set on Blood [3], 36 min; in the data set on Blood [5], 29 min. The results for the degraded at 1440 h in [4] and in data set [6] were 18% and 9%, respectively.

Regarding `O=C(C1=CN(Cc2ccc([N+](=O)[O-])cc2)C=CC1)N(CCCl)CCCl`, the t1/2 in data set [7] was 7 min; with Blood [12], 34 min; with Blood [16] it was 39 min; in the data set on Brain [17] it was 31 min. Besides, the Drug metabolism in the data set with Blood [8] came to 12 µg/mL; in the data set with Brain [9] it was 17 µg/g; in the data set with Blood [10] it was 0 µg/mL; in the data set with Brain [11], 9 µg/g; with Blood [13] it was 60 µg/mL; in the data set with Brain [14] it was 4 µg/g. The Drug metabolism with Blood [15] stood at 35 µg/mL; in the data set with Blood [18], 48 µg/mL; with Brain [19], 42 µg/g; with Brain [20], 27 µg/g. For the same compound, the degraded at 1440 h amounted to 8% in [4] and 3% in data set [6].

In the case of `O=C(c1ccc[n+](Cc2ccc([N+](=O)[O-])cc2)c1)N(CCCl)CCCl.[Br-]`, the half-life in [21] was determined as 8.4 min.

As to `O=C(c1ccc[n+](Cc2ccccc2)c1)N(CCCl)CCCl.[Br-]`, in data set [21], the half-life is 14.7 min.

Broadly, the half-life is the time needed for the level to fall by half in the phase considered.
